Test [1] concerns the target Small conductance calcium-activated potassium channel (Rattus norvegicus, UniProt P70604+P70606+P70605). The experiment in a line: The blocking of apamin-sensitive [Ca2+]-activated K+ (SKCa) channel was assessed by the compounds ability to inhibit the after-hyperpolarization in cultured rat superior cervical ganglion neurons. It counts as functional.
Test [2] addresses Small conductance calcium-activated potassium channel (Rattus norvegicus) (UniProt P70604+P70606+P70605). The experiment in a line: The ratio of compound concentrations and dequalinium that cause 50% inhibition of the after-hyperpolarization. The test is classed as functional.

For `c1cc2cc(c1)CNc1cc[n+](c3ccccc13)Cc1cccc(c1)C[n+]1ccc(c3ccccc31)NC2`, the IC50 in test [1] was 130 nM. Further, in test [2], the EMR came out at 0.22. Take `c1ccc2c(c1)c1cc[n+]2CCCCCCCCCC[n+]2ccc(c3ccccc32)NCc2ccc(cc2)-c2ccc(cc2)CN1`: the 50% inhibitory concentration (IC50) in test [1] came to 210 nM. Also, in test [2], the EMR worked out at 0.25. Taken in the same sequence, the figures for `Oc1c2cccc1C[n+]1ccc(c3ccccc31)NCc1ccc(cc1)CNc1cc[n+](c3ccccc13)C2` were 60 nM and 0.14. For `Nc1cc[n+](Cc2ccc(Cc3ccc(C[n+]4ccc(N)c5ccccc54)cc3)cc2)c2ccccc12`, in that order: 450 nM and 0.39. Take `Nc1cc[n+](Cc2cccc(C[n+]3ccc(N)c4ccccc43)c2)c2ccccc12`: the EMR in test [2] was 1.32. As to `Nc1cc[n+](Cc2ccc(/C=C\c3ccc(C[n+]4ccc(N)c5ccccc54)cc3)cc2)c2ccccc12`, the half-maximal inhibitory concentration (IC50) in test [1] is given as 190 nM. Moreover, the EMR in test [2] is 0.24.

In the case of `Nc1cc[n+](Cc2ccc3c(c2)Cc2cc(C[n+]4ccc(N)c5ccccc54)ccc2-3)c2ccccc12`, the IC50 in test [1] is recorded as 310 nM. Further, in test [2], the EMR was 0.33. For `c1ccc2c(c1)c1cc[n+]2Cc2ccc(cc2)Cc2ccc(cc2)C[n+]2ccc(c3ccccc32)NCCCCCCCCCCN1` [UCL-1530], in that order: 80 nM and 0.16. For `Nc1cc[n+](Cc2ccc(-c3cccc(-c4ccc(C[n+]5ccc(N)c6ccccc65)cc4)n3)cc2)c2ccccc12`, in that order: 360 nM and 0.59. As to `c1cc2cc(c1)C[n+]1ccc(c3ccccc31)NCc1ccc(cc1)CNc1cc[n+](c3ccccc13)C2`, the 50% inhibitory concentration (IC50) in test [1] is listed as 3 nM. For the same compound, in test [2], the EMR was found to be 0.01. `c1ccc2c(c1)c1cc[n+]2Cc2ccc3c(c2)Cc2cc(ccc2-3)C[n+]2ccc(c3ccccc32)NCc2ccc(cc2)-c2ccc(cc2)CN1`: the IC50 in test [1] is reported as 120 nM. In addition, in test [2], the EMR was found to be 0.15. Take `c1ccc2c(c1)c1cc[n+]2Cc2ccc(cc2)Cc2ccc(cc2)C[n+]2ccc(c3ccccc32)NCc2ccc(cc2)Cc2ccc(cc2)CN1`: the IC50 in test [1] is reported as 260 nM. Moreover, the EMR in test [2] came to 0.31. Take `c1ccc2c(c1)c1cc[n+]2Cc2ccc(cc2)Cc2ccc(cc2)C[n+]2ccc(c3ccccc32)NCc2ccc(cc2)-c2ccc(cc2)CN1`: the half-maximal inhibitory concentration (IC50) in test [1] stood at 280 nM. The EMR in test [2] stood at 0.8. As for `Oc1c2cc(I)cc1C[n+]1ccc(c3ccccc31)NCc1ccc(cc1)CNc1cc[n+](c3ccccc13)C2`, the IC50 in test [1] came to 100 nM. Moreover, in test [2], the EMR came out at 0.16. On to `c1cc2cc(c1)CNc1cc[n+](c3ccccc13)Cc1ccc(cc1)C[n+]1ccc(c3ccccc31)NC2`, for which the IC50 in test [1] came out at 70 nM. Besides, the EMR in test [2] is 0.18. With `c1ccc2c(c1)c1cc[n+]2Cc2ccc(cc2)-c2ccc(cc2)C[n+]2ccc(c3ccccc32)NCc2ccc(cc2)-c2ccc(cc2)CN1`, the IC50 in test [1] came out at 430 nM. Moreover, in test [2], the EMR came out at 0.89. For the compound `C1=C\c2ccc(cc2)C[n+]2ccc(c3ccccc32)NCCCCCCCCCCNc2cc[n+](c3ccccc23)Cc2ccc/1cc2`, the IC50 in test [1] came to 150 nM. In test [2], the EMR was 0.29. For `c1ccc2c(c1)c1cc[n+]2Cc2ccc(cc2)-c2ccc(cc2)C[n+]2ccc(c3ccccc32)NCCCCCCCCCCN1`, in that order: 170 nM and 0.26. For `c1ccc2c(c1)c1cc[n+]2Cc2ccc(cc2)-c2ccc(cc2)C[n+]2ccc(c3ccccc32)NCc2ccc(cc2)Cc2ccc(cc2)CN1`, the IC50 in test [1] was found to be 150 nM. Besides, the EMR in test [2] is 0.26.

As for `c1ccc2c(c1)c1cc[n+]2Cc2ccc3c(c2)Cc2cc(ccc2-3)C[n+]2ccc(c3ccccc32)NCCCCCCCCCCN1`, the 50% inhibitory concentration (IC50) in test [1] is on record as 90 nM. Moreover, in test [2], the EMR amounted to 0.11. Consider `Cc1cc(N)c2ccccc2[n+]1CCCCCCCCCC[n+]1c(C)cc(N)c2ccccc21.[Cl-].[Cl-]` [DEQUALINIUM CHLORIDE], for which, in test [1], the IC50 is recorded as 650 nM. The EMR in test [2] was 1.

In the case of `C1=C\c2ccc(cc2)C[n+]2ccc(c3ccccc32)NCc2ccc(cc2)Cc2ccc(cc2)CNc2cc[n+](c3ccccc23)Cc2ccc/1cc2`, the 50% inhibitory concentration (IC50) in test [1] turned out to be 250 nM. Moreover, the EMR in test [2] was determined as 1.1. Turning to `c1ccc2c(c1)c1cc[n+]2Cc2ccc(cc2)C[n+]2ccc(c3ccccc32)NCc2ccc(cc2)CN1`, the IC50 in test [1] turned out to be 28 nM. Moreover, the EMR in test [2] came out at 0.05. On to `c1cc2cc(c1)-c1cccc(c1)C[n+]1ccc(c3ccccc31)NCCCCCCCCCCNc1cc[n+](c3ccccc13)C2`, for which, in test [1], the concentration for half-maximal inhibition (IC50) was determined as 110 nM. Moreover, the EMR in test [2] was determined as 0.28. For `c1cc2nc(c1)-c1ccc(cc1)C[n+]1ccc(c3ccccc31)NCc1ccc(cc1)Cc1ccc(cc1)CNc1cc[n+](c3ccccc13)Cc1ccc-2cc1`, in that order: 380 nM and 0.88. Consider `Nc1cc[n+](Cc2ccc(C[n+]3ccc(N)c4ccccc43)cc2)c2ccccc12`, for which the IC50 in test [1] is on record as 2800 nM. Also, in test [2], the EMR was 3.7. As to `Nc1cc[n+](Cc2ccc(-c3ccc(C[n+]4ccc(N)c5ccccc54)cc3)cc2)c2ccccc12`, in test [1], the IC50 is 380 nM. Further, the EMR in test [2] is 0.4. With `Nc1cc[n+](Cc2cccc(-c3cccc(C[n+]4ccc(N)c5ccccc54)c3)c2)c2ccccc12`, the IC50 in test [1] came to 290 nM. In addition, the EMR in test [2] was determined as 0.55. For `COc1c2cccc1C[n+]1ccc(c3ccccc31)NCc1ccc(cc1)CNc1cc[n+](c3ccccc13)C2`, in that order: 25 nM and 0.019. With `Nc1cc[n+](Cc2ccc(CCc3ccc(C[n+]4ccc(N)c5ccccc54)cc3)cc2)c2ccccc12`, the concentration for half-maximal inhibition (IC50) in test [1] is 410 nM. The EMR in test [2] was determined as 0.71.

`c1ccc2c(c1)c1cc[n+]2Cc2ccc(cc2)CCc2ccc(cc2)C[n+]2ccc(c3ccccc32)NCCCCCCCCCCN1`: in test [1], the IC50 is given as 180 nM. Further, in test [2], the EMR was 0.57.

By IC50 is commonly meant the concentration that gives 50% inhibition.

The values are drawn from ChEMBL document CHEMBL1133598, “Synthesis, molecular modeling, and pharmacological testing of bis-quinolinium cyclophanes: potent, non-peptidic blockers of the apamin-sensitive Ca(2+)-activated K(+) channel” (J Med Chem, 2000).
